From patent US20240116985A1, “STAPLED PEPTIDES AND METHODS THEREOF” (priority 2020, published 2024)

Target: T1, full-length beta-Catenin (Uniprot ID P35222) (Homo sapiens, UniProt P35222)
T1 construct: 10 nM full-length beta-Catenin (Uniprot ID P35222)
T1 sequence (P35222 1-781): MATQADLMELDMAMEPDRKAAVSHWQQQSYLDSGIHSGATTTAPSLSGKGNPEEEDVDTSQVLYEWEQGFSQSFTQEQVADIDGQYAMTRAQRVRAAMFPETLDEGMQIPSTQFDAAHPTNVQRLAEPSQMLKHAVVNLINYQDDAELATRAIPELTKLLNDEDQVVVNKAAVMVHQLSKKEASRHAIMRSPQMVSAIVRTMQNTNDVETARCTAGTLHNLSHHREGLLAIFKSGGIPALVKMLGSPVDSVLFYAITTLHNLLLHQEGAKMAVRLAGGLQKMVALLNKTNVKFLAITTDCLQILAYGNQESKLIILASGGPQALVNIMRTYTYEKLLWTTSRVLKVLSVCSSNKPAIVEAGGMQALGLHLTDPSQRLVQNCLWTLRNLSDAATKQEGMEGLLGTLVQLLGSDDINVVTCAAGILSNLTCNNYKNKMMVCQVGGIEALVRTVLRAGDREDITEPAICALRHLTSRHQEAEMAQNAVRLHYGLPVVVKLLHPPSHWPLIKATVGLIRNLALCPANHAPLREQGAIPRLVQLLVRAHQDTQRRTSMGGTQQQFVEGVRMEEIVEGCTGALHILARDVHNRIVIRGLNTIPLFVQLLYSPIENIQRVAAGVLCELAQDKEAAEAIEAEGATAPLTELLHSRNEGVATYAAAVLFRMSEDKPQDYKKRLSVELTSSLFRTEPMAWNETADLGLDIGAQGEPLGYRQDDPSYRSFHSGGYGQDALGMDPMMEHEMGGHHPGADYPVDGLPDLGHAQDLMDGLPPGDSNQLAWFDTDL
Test: Fluorescence polarization IC50 (beta-catenin / 5FAM-TCF4 10-53 competition)
Type: binding
Settings: fluorescence polarization; read-out: beta-Catenin FP IC50

Row | IC50 [nM] | SMILES
1 | 49 | CC(=O)N1CCC[C@]12CC=CCCCC1(CCCC=CCCCOC(=O)N3CC[C@@](C(=O)N[C@@H](Cc4ccsc4)C(=O)N[C@@H](Cc4csc5ccccc45)C(=O)N[C@@H](CCC(N)=O)C(N)=O)(C3)NC(=O)[C@H](CC(C)C)NC(=O)[C@H](Cc3ccccc3)NC(=O)[C@H](C)NC(=O)[C@H](C)NC(=O)[C@H](CN3CCCC[C@@H]3C(=O)O)NC(=O)[C@H](CC(=O)O)NC1=O)NC(=O)[C@H](CC(C)(C)C)NC(=O)[C@H](CC(=O)O)NC2=O (stereo partly drawn) [I-1969, Ac-PL3-Asp-Npg-B5-Asp-R2COOPipA-Ala-Ala-Phe-Leu-PyrS2-3Thi-BztA-Gln-NH2]
2 | 441 | CC(=O)N1CCC[C@]12CC=CCCC1(CCC=CCCOC(=O)N3CC[C@@](C(=O)N[C@@H](Cc4ccsc4)C(=O)N[C@@H](Cc4csc5ccccc45)C(=O)N[C@@H](CCC(N)=O)C(N)=O)(C3)NC(=O)[C@H](CC(C)C)NC(=O)[C@H](Cc3ccccc3)NC(=O)[C@H](C)NC(=O)[C@H](C)NC(=O)[C@H](CC(=O)O)NC(=O)[C@H](CC(=O)O)NC1=O)NC(=O)[C@H](CC(C)(C)C)NC(=O)[C@H](CC(=O)O)NC2=O (stereo partly drawn) [I-1970, Ac-PL3-Asp-Npg-B4-Asp-Asp-Ala-Ala-Phe-Leu-PyrS1-3Thi-BztA-Gln-NH2]
3 | 475 | CC(=O)N1CCC[C@]12CC=CCCC1(CCC=CCCCOC(=O)N3CC[C@@](C(=O)N[C@@H](Cc4ccsc4)C(=O)N[C@@H](Cc4csc5ccccc45)C(=O)N[C@@H](CCC(N)=O)C(N)=O)(C3)NC(=O)[C@H](CC(C)C)NC(=O)[C@H](Cc3ccccc3)NC(=O)[C@H](C)NC(=O)[C@H](C)NC(=O)[C@H](CC(=O)O)NC(=O)[C@H](CC(=O)O)NC1=O)NC(=O)[C@H](CC(C)(C)C)NC(=O)[C@H](CC(=O)O)NC2=O (stereo partly drawn) [I-1971, Ac-PL3-Asp-Npg-B4-Asp-Asp-Ala-Ala-Phe-Leu-PyrS2-3Thi-BztA-Gln-NH2]
4 | 689 | CC(=O)N1CCC[C@]12CC=CCCC1(CCC=CCCCOC(=O)N3CC[C@@](C(=O)N[C@@H](Cc4ccsc4)C(=O)N[C@@H](Cc4csc5ccccc45)C(=O)N[C@@H](CCC(N)=O)C(N)=O)(C3)NC(=O)[C@H](CC(C)C)NC(=O)[C@H](Cc3ccccc3)NC(=O)[C@H](C)NC(=O)[C@H](C)NC(=O)[C@H](CC(=O)O)NC(=O)[C@H](CC(=O)O)NC1=O)NC(=O)[C@H](CC(C)(C)C)NC(=O)[C@H](CC(=O)O)NC2=O (stereo partly drawn) [I-1972, Ac-PL3-Asp-Npg-B4-Asp-Asp-Ala-Ala-Phe-Leu-PyrS2-3Thi-BztA-Gln-NH2]
5 | 797 | CC(=O)N1CCC[C@]12CC=CCCC1(CCC=CCCCCOC(=O)N3CC[C@@](C(=O)N[C@@H](Cc4ccsc4)C(=O)N[C@@H](Cc4csc5ccccc45)C(=O)N[C@@H](CCC(N)=O)C(N)=O)(C3)NC(=O)[C@H](CC(C)C)NC(=O)[C@H](Cc3ccccc3)NC(=O)[C@H](C)NC(=O)[C@H](C)NC(=O)[C@H](CC(=O)O)NC(=O)[C@H](CC(=O)O)NC1=O)NC(=O)[C@H](CC(C)(C)C)NC(=O)[C@H](CC(=O)O)NC2=O (stereo partly drawn) [I-1973, Ac-PL3-Asp-Npg-B4-Asp-Asp-Ala-Ala-Phe-Leu-PyrS3-3Thi-BztA-Gln-NH2]
6 | 324 | CC(=O)N1CCC[C@]12CCCCCC1(CCCCCCOC(=O)N3CC[C@@](C(=O)N[C@@H](Cc4ccsc4)C(=O)N[C@@H](Cc4csc5ccccc45)C(=O)N[C@@H](CCC(N)=O)C(N)=O)(C3)NC(=O)[C@H](CC(C)C)NC(=O)[C@H](Cc3ccccc3)NC(=O)[C@H](C)NC(=O)[C@H](C)NC(=O)[C@H](CC(=O)O)NC(=O)[C@H](CC(=O)O)NC1=O)NC(=O)[C@H](CC(C)(C)C)NC(=O)[C@H](CC(=O)O)NC2=O (stereo partly drawn) [I-1974, Ac-PL3-Asp-Npg-B4-Asp-Asp-Ala-Ala-Phe-Leu-PyrS1-3Thi-BztA-Gln-NH2]
7 | 745 | CC(=O)N1CCC[C@]12CCCCCC1(CCCCCCCOC(=O)N3CC[C@@](C(=O)N[C@@H](Cc4ccsc4)C(=O)N[C@@H](Cc4csc5ccccc45)C(=O)N[C@@H](CCC(N)=O)C(N)=O)(C3)NC(=O)[C@H](CC(C)C)NC(=O)[C@H](Cc3ccccc3)NC(=O)[C@H](C)NC(=O)[C@H](C)NC(=O)[C@H](CC(=O)O)NC(=O)[C@H](CC(=O)O)NC1=O)NC(=O)[C@H](CC(C)(C)C)NC(=O)[C@H](CC(=O)O)NC2=O (stereo partly drawn) [I-1975, Ac-PL3-Asp-Npg-B4-Asp-Asp-Ala-Ala-Phe-Leu-PyrS2-3Thi-BztA-Gln-NH2]
8 | 150 | CC(=O)N1CCC[C@]12CCCCCC1(CCCCCCCCOC(=O)N3CC[C@@](C(=O)N[C@@H](Cc4ccsc4)C(=O)N[C@@H](Cc4csc5ccccc45)C(=O)N[C@@H](CCC(N)=O)C(N)=O)(C3)NC(=O)[C@H](CC(C)C)NC(=O)[C@H](Cc3ccccc3)NC(=O)[C@H](C)NC(=O)[C@H](C)NC(=O)[C@H](CC(=O)O)NC(=O)[C@H](CC(=O)O)NC1=O)NC(=O)[C@H](CC(C)(C)C)NC(=O)[C@H](CC(=O)O)NC2=O (stereo partly drawn) [I-1976, Ac-PL3-Asp-Npg-B4-Asp-Asp-Ala-Ala-Phe-Leu-PyrS3-3Thi-BztA-Gln-NH2]
9 | 4280 | CC(=O)N1CCC[C@]12CC=CCCCC[C@@](C)(C(=O)N[C@@H](CC(=O)O)C(=O)N[C@@H](CC(=O)O)C(=O)N[C@@H](C)C(=O)N[C@@H](C)C(=O)N[C@@H](Cc1ccccc1)C(=O)N[C@@H](CC(C)C)C(=O)NC(C)(C)C(=O)N[C@@H](Cc1ccsc1)C(=O)N[C@@H](Cc1csc3ccccc13)C(=O)N[C@@H](CCC(N)=O)C(N)=O)NC(=O)[C@H](CC(C)(C)C)NC(=O)[C@H](CC(=O)O)NC2=O [I-1977, Ac-PL3-Asp-Npg-S6-Asp-Asp-Ala-Ala-Phe-Leu-Aib-3Thi-BztA-Gln-NH2]
10 | 567 | CC(=O)N1CCC[C@]12CCCCCCC[C@@](C)(C(=O)N[C@@H](CC(=O)O)C(=O)N[C@@H](CC(=O)O)C(=O)N[C@@H](C)C(=O)N[C@@H](C)C(=O)N[C@@H](Cc1ccccc1)C(=O)N[C@@H](CC(C)C)C(=O)NC(C)(C)C(=O)N[C@@H](Cc1ccsc1)C(=O)N[C@@H](Cc1csc3ccccc13)C(=O)N[C@@H](CCC(N)=O)C(N)=O)NC(=O)[C@H](CC(C)(C)C)NC(=O)[C@H](CC(=O)O)NC2=O [I-1981, Ac-PL3-Asp-Npg-S6-Asp-Asp-Ala-Ala-Phe-Leu-Aib-3Thi-BztA-Gln-NH2]
11 | 9660 | CC(=O)N1CCC[C@]12CCCCC[C@@](C)(C(=O)N[C@@H](CC(=O)O)C(=O)N[C@@H](CC(=O)O)C(=O)N[C@@H](C)C(=O)N[C@@H](C)C(=O)N[C@@H](Cc1ccccc1)C(=O)N[C@@H](CC(C)C)C(=O)NC(C)(C)C(=O)N[C@@H](Cc1ccsc1)C(=O)N[C@@H](Cc1csc3ccccc13)C(=O)N[C@@H](CCC(N)=O)C(N)=O)NC(=O)[C@H](CC(C)(C)C)NC(=O)[C@H](CC(=O)O)NC2=O [I-1982, Ac-PL3-Asp-Npg-S4-Asp-Asp-Ala-Ala-Phe-Leu-Aib-3Thi-BztA-Gln-NH2]
12 | 320 | CC(C)C[C@@H]1NC(=O)[C@H](Cc2ccccc2)NC(=O)[C@H](C)NC(=O)[C@H](C)NC(=O)[C@H](Cc2cccc(C(=O)O)c2)NC(=O)[C@H](CC(=O)O)NC(=O)C2(CCCC=CCCCOC(=O)N3CC[C@@](C(=O)N[C@@H](Cc4ccccc4Cl)C(=O)N[C@@H](Cc4csc5ccccc45)C(=O)N[C@@H](CCC(N)=O)C(N)=O)(C3)NC1=O)CCCC=CCCC(=O)N1CCCC1C(=O)N[C@@H](CC(=O)O)C(=O)N[C@@H](CC(C)(C)C)C(=O)N2 (stereo partly drawn) [I-1984, ProAm5-Asp-Npg-B5-Asp-3COOHF-Ala-Ala-Phe-Leu-PyrS2-2C1F-BztA-Gln-NH2]
13 | 325 | CC(C)C[C@@H]1NC(=O)[C@H](Cc2ccccc2)NC(=O)[C@H](C)NC(=O)[C@H](C)NC(=O)[C@H](Cc2cccc(C(=O)O)c2)NC(=O)[C@H](CC(=O)O)NC(=O)C2(CCCC=CCCCOC(=O)N3CC[C@@](C(=O)N[C@@H](Cc4ccccc4Cl)C(=O)N[C@@H](Cc4csc5ccccc45)C(=O)N[C@@H](CCC(N)=O)C(N)=O)(C3)NC1=O)CCCC=CCCCC(=O)N1CCC[C@@H]1C(=O)N[C@@H](CC(=O)O)C(=O)N[C@@H](CC(C)(C)C)C(=O)N2 (stereo partly drawn) [I-1985, ProAm6-Asp-Npg-B5-Asp-3COOHF-Ala-Ala-Phe-Leu-PyrS2-2C1F-BztA-Gln-NH2]
14 | 54 | CC(=O)N1CCC[C@]12CCCCCCC1(CCCCCCCCOC(=O)N3CC[C@@](C(=O)N[C@@H](Cc4ccsc4)C(=O)N[C@@H](Cc4csc5ccccc45)C(=O)N[C@@H](CCC(N)=O)C(N)=O)(C3)NC(=O)[C@H](CC(N)=O)NC(=O)[C@H](Cc3ccccc3)NC(=O)[C@H](C)NC(=O)[C@H](C)NC(=O)[C@H](CC(=O)O)NC(=O)[C@H](CC(=O)O)NC1=O)NC(=O)[C@H](CC(C)(C)C)NC(=O)[C@H](CC(=O)O)NC2=O (stereo partly drawn) [I-1987, Ac-PL3-Asp-Npg-B5-Asp-Asp-Ala-Ala-Phe-Asn-PyrS2-3Thi-BztA-Gln-NH2]
15 | 312 | CC(=O)N1CCC[C@H]1C(=O)N[C@@H](CC(=O)O)C(=O)N[C@@H](CC(C)(C)C)C(=O)N[C@]1(C)CCCCC=CCCCOC(=O)N2CC[C@@](C(=O)N[C@@H](Cc3ccsc3)C(=O)N[C@@H](Cc3csc4ccccc34)C(=O)N[C@@H](CCC(N)=O)C(N)=O)(C2)NC(=O)[C@H](CC(C)C)NC(=O)[C@H](Cc2ccccc2)NC(=O)[C@H](C)NC(=O)[C@H](C)NC(=O)[C@H](CC(=O)O)NC(=O)[C@H](CC(=O)O)NC1=O [I-1988, Ac-Pro-Asp-Npg-R6-Asp-Asp-Ala-Ala-Phe-Leu-PyrS2-3Thi-BztA-Gln-NH2]
